These results are taken from US20190382850A1, “METHOD FOR IDENTIFYING MITOCHONDRIAL DNA IN EXTRACELLULAR VESICLES AND TREATMENT OF MTDNA-RELATED DISORDERS AND CANCER” (Memorial Sloan-Kettering Cancer Center, priority 2017, published 2019).

Type in all cases: cell-based, human
One experiment has as its system HTR tumor-derived cells. Nature of the experiment: OXPHOS potential (Seahorse) in FACS sorted tumor-derived cancer cells ± HT. Conditions: fulvestrant 10 μM, FIG. 2b. The source says:
(§1) (Panel a) Representative tumor growth kinetics (BLI) of GFP+/Luciferase+MCF7 xenografts (n=10) treated with weekly fulvestrant once mammary fat pad tumors were established (after 3 months) which led to a period (4 months) of disease stability on HT (HTS) followed by exponential growth on HT (HTR). Representative H&E images of tumors and primary cultures from unsorted as well as FACS purified cancer cells (GFP+/Epcam+) and murine CAFs (GFP−/Epcam). Scale bar 20 μm. (Panel b) OXPHOS potential in tumor-derived cancer cells (panel a) was measured±HT (fulvestrant, 10 μM) by Seahorse. […] (Panel d) Percentage of metastatic lesions isolated by FACS from tumor-bearing mice (n=8/group) expressing murine mtDNA as determined by ND1 qPCR (2 ng of total DNA). Oxygen consumption rates (OCR) in murine-mtDNApos and ctrl HTR cells determined by Seahorse. (Panel e) Murine mitochondrial RNA expression (12 genes: ND1, ND2, COX2, ATP8, ATP6, COX3, ND3, ND4L, ND4, ND5, ND6, CytB) as fold change (logioscale) determined by qRT-PCR in HTR and HTS cells (panel a). […]
(§2) Mitochondrial respiration and OXPHOS potential in cells was assessed using Seahorse technology (www.seahorsebio.com)(Qian, W. & Van Houten, B. Alterations in bioenergetics due to changes in mitochondrial DNA copy number. Methods 51, 452-457 (2010)). […]

A further experiment deals with HTS cells. The experiment is described as above. The conditions noted are these: fulvestrant 10 μM, FIG. 2b.
From the text: as §1, §2

In experiment [1] the test system is ER+ tumor-derived cells and cell lines. Nature of the experiment: OXPHOS potential (Seahorse) in HT-treated cancer cells. The conditions noted are these: fulvestrant; FIG. 11c. The source says: (§3) (Panel a), Representative bright field images of MCF7 po cells±CAF-EVs (3×10^9/weekly for 40 days). Bar graph of number of MS is also reported at the endpoint of the experiment (40 days). (Panel b), HT led to decreased expression of mRNA involved in protein synthesis and OXPHOS signaling with z score and -log (p-values)- as determined by Ingenuity analysis of microarray data from RNA isolated FIG. 5a (MCF7), single P values are also reported. (Panel c), OXPHOS potential determined as changes of respiration rate under mitochondrial stressors by seahorse technology (oligomycin 1 μM, rotenone 100 nM) in cancer cells isolated from FIG. 5b (MCF7, PT1). […] (Panel e), Mitochondrial Complex I/IV activity quantification as determined by nmol/min/mg of protein in luminal breast cancer cell lines from panel a. […]
Mitochondrial respiration and OXPHOS potential in cells was assessed using Seahorse technology (www.seahorsebio.com)(Qian, W. & Van Houten, B. Alterations in bioenergetics due to changes in mitochondrial DNA copy number. Methods 51, 452-457 (2010)). Oxygen consumption rate (OCR), extracellular acidification rate and glycolytic potential were determined using the Seahorse extracellular flux analyzer (XF-96, XF-24 Seahorse Bioscience). […] Furthermore OXPHOS potential was determined by measuring the area of the progress curve after the addition of glucose and rotenone/oligomycin.

In experiment [2] the test system is mitochondrial complex protein. Put plainly: Western blot of OXPHOS protein cocktail in HT-treated cells. Conditions: fulvestrant; FIG. 11d.
From the text: as §3
For immunoblotting assays, cells were lysed in buffer (50 mmol/L Tris at pH 7.5, 150 mmol/L NaCl, 5 μg/mL aprotinin, pepstatin, 1% NP-40, lmmol/L EDTA, 0.25% deoxycholate, and protease inhibitor cocktail tablet, Sigma). […] The enrichment of CAFs in xenografts was determined by desmin immunohistochemistry (IHC) in tumor-derived sections. […] Viable cells were determined 7-14 days after treatment using trypan blue and cell counting using bright field microscopy or DAPI exclusion staining by flow cytometry (Dako Cytomation). […]
(In general: In western blotting, separated proteins are transferred to a membrane and probed.)

On to `C[C@]12CC[C@@H]3c4ccc(O)cc4C[C@@H](CCCCCCCCC[S+]([O-])CCCC(F)(F)C(F)(F)F)[C@H]3[C@@H]1CC[C@@H]2O` (stereo partly shown) [fulvestrant], for which the “OXPHOS capacity of HTR tumor-derived cells” value with HTR tumor-derived cells is recorded as “unaffected”. The “OXPHOS potential of HTS cells” value with HTS cells was “inhibited”. Further, the “OXPHOS potential in cells treated with HT” value in experiment [1] is “reduced”. Moreover, in experiment [2], the “mitochondrial complex protein expression in cells treated with HT” value is reported as “reduced”.
